Measurements reported in patent publication US20260070944A1, “PEPTIDE PROMOTING TYROSINASE ACTIVITY AND USE THEREOF” (HYSENSBIO CO., LTD, priority 2022, published 2026).
Where no end group is shown, it is not given here.

Tested on: B16F10 cells
Experiment: MTT assay, cell viability
Format: cell-based
Experimental: A melanocyte (B16F10) cell line was cultured using DMEM containing 10% FBS and 1% penicillin/streptomycin (PS) at 37° C. in a 5% CO2 incubator.
An MTT reagent was used by being diluted in DMEM at a concentration of 0.5 mg/mL.
B16F10 cells were seeded at 230,000 cells/well in a 6-well plate, and cultured at 37° C. in a 5% CO2 incubator for 24 hours. Subsequently, the cells were treated with peptide KH001 (SEQ ID NO: 96) at different concentrations for 72 hours to prepare the cells, and then the MTT reagent was added and allowed to react in a 37° C. incubator for 1 hour under light blocking conditions. After removing the entire medium, the generated formazan was dissolved in DMSO, and then absorbance was measured at 560 nm.
B16F10 cells were treated with the KH001 peptide at different concentrations. After 72 hours after KH001 peptide treatment, cell viability was measured using an MTT assay.

Sequence: KYKQKRRSYK [KH001, KYKQKRRSYK]
- cell viability compared to the control (50 μM, 100 μM and 200 μM, 72 hours, MTT): no significant difference
- toxicity (at the predetermined concentrations (50, 100, 200 μM)): no toxicity
